From patent publication US20190300882A1, “METHODS OF TREATING NEUROBLASTOMA AND REAGENTS THEREFOR” (GARVAN INSTITUTE OF MEDICAL RESEARCH, priority 2016, published 2019)

Experiments:
KELLY cells [1] = assay: Primary miRNA mimic screen in combination with low dose IC30 of vincristine or doxorubicin, cell viability; format: cell-based; conditions: for Primary screen Viability (% of control) Kelly DXR: miRNA mimic 25 nM + low dose IC30 doxorubicin; for Primary screen Viability (% of control) Kelly VCR: miRNA mimic 25 nM + low dose IC30 vincristine; for Primary screen Viability (% of control) Kelly Vehicle: miRNA mimic 25 nM + vehicle
Description: To systematically identify miRNAs that affect viability and survival of neuroblstoma cells in combination with chemotherapy, a further functional miRNA screen was performed using the 1200 miRNAs from the miRIDIAN miRNA mimic Library (version 16.0; Dharmacon) in combination with low dose IC30 of vincristine or doxorubicin in the two neuroblastoma cancer cell lines. In doing so, the inventors identified miRNAs which result in a lethal phenotype to neuroblastoma cells when administered in combination with low dose IC30 chemotherapy (hereinafter referred to as ‘synthetic lethal’ miRNAs). […] After 24 hours, media was changed using a BioTek 406. […] Luminescence measurements were taken on the Synergy H4 high-throughput multimode microplate reader as described in Example 1. All screens were performed in duplicates.

KELLY cells [2] = assay: Secondary validation screen of synthetic lethal miRNAs with low dose IC30 chemotherapy, cell viability; format: cell-based; conditions: for Secondary screen Viability (% of control) Kelly DXR: miRNA mimic + low dose IC30 doxorubicin; for Secondary screen Viability (% of control) Kelly VCR: miRNA mimic + low dose IC30 vincristine; for Secondary screen Viability (% of control) Kelly Vehicle: miRNA mimic + vehicle
Description: (§1) KELLY cells were grown in 10% FCS/RPMI as described in Example 1 and reverse transfected in 384-well plate format with 25 nM of a miRNA from the Dharmacon microRNA mimic Library (version 16.0) using liquid-handling robot Calliper Sciclone ALH3000 according to the conditions described in Table 3. After 24 hours, media was changed using a BioTek 406. Media was again changed after 48 hours and 96 hours using a BioTek 406, and at each of those time points low dose IC30 of vincristine or doxorubicin was added to the culture. 144 hours post-transfection, cell viability was determined using CellTiter-Glo luminescent assay (Promega) at 1:2 dilution. Luminescence measurements were taken on the Synergy H4 high-throughput multimode microplate reader as described in Example 1. All screens were performed in duplicates. The experimental design and timeline for this screen are illustrated in FIGS. 5 and 6, respectively.
(§2) The secondary validation screens were performed in accordance with the genome-wide screens described in Example 1 and Example 2, respectively, with the exception that an additional MYCN-amplified neuroblastoma cell line (SK-N-DZ) was added to each screen.
(§3) Furthermore, five additional non-active miRNAs discovered to have no measureable effect across all treatment groups of the genome-wide screen (‘non-lethal’ miRNAs) were included as negative controls.

[3] = test system: SK-N-DZ MYCN-amplified neuroblastoma cell line; assay: Secondary validation screen of synthetic lethal miRNAs with low dose IC30 chemotherapy, additional cell line; format: cell-based; conditions: for Additional cell line Viability (% of control) SKNDZ DXR: miRNA mimic + low dose IC30 doxorubicin; for Additional cell line Viability (% of control) SKNDZ VCR: miRNA mimic + low dose IC30 vincristine; for Additional cell line Viability (% of control) SKNDZ Vehicle: miRNA mimic + vehicle
Description: as §1, §2, §3

IMR-90 cells = assay: Cell toxicity screen of synthetic lethal miRNAs in non-cancer cells
Description: The cell toxicity screens were performed in IMR-90 cells (normal human fibroblast cells, ATCC).

## hsa-miR-449a (guide UGGCAGUGUAUUGUUAGCUGGU; chemistry not given here; listed as Homo sapiens)
KELLY cells [1]
  Primary screen Viability (% of control) Kelly DXR: 62 % of control
  Primary screen Viability (% of control) Kelly VCR: 22 % of control
  Primary screen Viability (% of control) Kelly Vehicle: 72 % of control
KELLY cells [2]
  Secondary screen Viability (% of control) Kelly DXR: 83 % of control
  Secondary screen Viability (% of control) Kelly VCR: 35 % of control
  Secondary screen Viability (% of control) Kelly Vehicle: 75 % of control
[3]
  Additional cell line Viability (% of control) SKNDZ DXR: 49 % of control
  Additional cell line Viability (% of control) SKNDZ VCR: 44 % of control
  Additional cell line Viability (% of control) SKNDZ Vehicle: 71 % of control

## hsa-miR-485-3p (guide GUCAUACACGGCUCUCCUCUCU; chemistry not given here; listed as Homo sapiens)
IMR-90 cells; IMR-90, miRNA + low dose IC30 doxorubicin
  cell viability in non-cancer cells, DXR (% of control): 76 % of control
IMR-90 cells; IMR-90, miRNA + low dose IC30 vincristine
  cell viability in non-cancer cells, VCR (% of control): 80 % of control
IMR-90 cells; IMR-90, miRNA alone (media)
  cell viability in non-cancer cells, Media (% of control): 79 % of control
IMR-90 cells; even when administered in combination with a chemotherapeutic agent
  activity in IMR90 cells: minimal activity
KELLY cells [1]
  Primary screen Viability (% of control) Kelly DXR: 23 % of control
  Primary screen Viability (% of control) Kelly VCR: 52 % of control
  Primary screen Viability (% of control) Kelly Vehicle: 72 % of control
KELLY cells [2]; in both Kelly and SKNDZ MYCN-amplified cells, secondary screen
  synthetic lethality with chemotherapy: substantial synthetic lethality
KELLY cells [2]
  Secondary screen Viability (% of control) Kelly DXR: 47 % of control
  Secondary screen Viability (% of control) Kelly VCR: 53 % of control
  Secondary screen Viability (% of control) Kelly Vehicle: 85 % of control
[3]
  Additional cell line Viability (% of control) SKNDZ DXR: 69 % of control
  Additional cell line Viability (% of control) SKNDZ VCR: 68 % of control
  Additional cell line Viability (% of control) SKNDZ Vehicle: 113 % of control

## hsa-miR-3151 (GGUGGGGCAAUGGGAUCAGGU; chemistry not given here; listed as Homo sapiens)
KELLY cells [1]
  Primary screen Viability (% of control) Kelly DXR: 40 % of control
  Primary screen Viability (% of control) Kelly VCR: 52 % of control
  Primary screen Viability (% of control) Kelly Vehicle: 102 % of control
KELLY cells [2]
  Secondary screen Viability (% of control) Kelly DXR: 65 % of control
  Secondary screen Viability (% of control) Kelly VCR: 47 % of control
  Secondary screen Viability (% of control) Kelly Vehicle: 102 % of control
[3]
  Additional cell line Viability (% of control) SKNDZ DXR: 71 % of control
  Additional cell line Viability (% of control) SKNDZ VCR: 72 % of control
  Additional cell line Viability (% of control) SKNDZ Vehicle: 87 % of control

## hsa-miR-3181 (AUCGGGCCCUCGGCGCCGG; chemistry not given here; listed as Homo sapiens)
KELLY cells [1]
  Primary screen Viability (% of control) Kelly DXR: 34 % of control
  Primary screen Viability (% of control) Kelly VCR: 57 % of control
  Primary screen Viability (% of control) Kelly Vehicle: 94 % of control
KELLY cells [2]
  Secondary screen Viability (% of control) Kelly DXR: 61 % of control
  Secondary screen Viability (% of control) Kelly VCR: 96 % of control
  Secondary screen Viability (% of control) Kelly Vehicle: 108 % of control
[3]
  Additional cell line Viability (% of control) SKNDZ DXR: 38 % of control
  Additional cell line Viability (% of control) SKNDZ VCR: 83 % of control
  Additional cell line Viability (% of control) SKNDZ Vehicle: 91 % of control

## hsa-miR-3646 (AAAAUGAAAUGAGCCCAGCCCA; chemistry not given here; listed as Homo sapiens)
KELLY cells [1]
  Primary screen Viability (% of control) Kelly DXR: 34 % of control
  Primary screen Viability (% of control) Kelly VCR: 55 % of control
  Primary screen Viability (% of control) Kelly Vehicle: 74 % of control
KELLY cells [2]
  Secondary screen Viability (% of control) Kelly DXR: 45 % of control
  Secondary screen Viability (% of control) Kelly VCR: 72 % of control
  Secondary screen Viability (% of control) Kelly Vehicle: 70 % of control
[3]
  Additional cell line Viability (% of control) SKNDZ DXR: 52 % of control
  Additional cell line Viability (% of control) SKNDZ VCR: 110 % of control
  Additional cell line Viability (% of control) SKNDZ Vehicle: 101 % of control

## hsa-miR-3924 (AUAUGUAUAUGUGACUGCUACU; chemistry not given here; listed as Homo sapiens)
KELLY cells [1]
  Primary screen Viability (% of control) Kelly DXR: 35 % of control
  Primary screen Viability (% of control) Kelly VCR: 40 % of control
  Primary screen Viability (% of control) Kelly Vehicle: 72 % of control
KELLY cells [2]
  Secondary screen Viability (% of control) Kelly DXR: 46 % of control
  Secondary screen Viability (% of control) Kelly VCR: 57 % of control
  Secondary screen Viability (% of control) Kelly Vehicle: 75 % of control
[3]
  Additional cell line Viability (% of control) SKNDZ DXR: 41 % of control
  Additional cell line Viability (% of control) SKNDZ VCR: 81 % of control
  Additional cell line Viability (% of control) SKNDZ Vehicle: 85 % of control
